In publication PMC11344848, “Proximity-driven site-specific cyclization of phage-displayed peptides” (Nature Communications, 2024):

Assay: N-terminal-to-internal Cys bridging with heterobifunctional cyclopropenone-chloroacetamide linker (CCA): DTT reduction, cyclopropenone condensation with N-terminal Cys 1,2-aminothiol (1,4-thiazepan-5-one), then proximity-driven intramolecular thioether formation between internal Cys thiol and chloroacetamide
Details: the molecule shown is the open-chain precursor, PBS pH 7.4, 5% DMSO, 0.01 mM, 25.0 °C, 2.0 h, 2 steps

N=C(N)NCCC[C@H](NC(=O)[C@@H]1CCCN1C(=O)[C@H](CS)NC(=O)[C@H](CC(N)=O)NC(=O)[C@H](CCC(N)=O)NC(=O)[C@H](Cc1ccccc1)NC(=O)[C@H](Cc1ccc(O)cc1)NC(=O)[C@@H]1CSCC(CCCC(=O)N2CCN(C(=O)CCl)CC2)C(=O)N1)C(=O)NCC(N)=O (stereo partly drawn) [H-CYFQNCPRG-NH2]
ring closure, conversion by HPLC (31-membered ring): > 95%

H-CGGSGGC-[WLAAA-D1/D2 pIII fusion]
ring closure, conversion by HPLC (34-membered ring): 100%

H-CGSGGSGC-[AAA-D1/D2 pIII fusion]
ring closure, conversion by HPLC (37-membered ring): 100%

H-CPEGYILDDGFCTDIDE-[D1/D2 pIII fusion]
ring closure, conversion by HPLC (49-membered ring): 100%

H-CQPHPGQTC-[AAA-D1/D2 pIII fusion]
ring closure, conversion by HPLC (40-membered ring): 100%

H-CYKLAEGDKYYIC-[D1/D2 pIII fusion]
ring closure, conversion by HPLC (52-membered ring): 100%
